What was measured:
Erysiphe graminis = test: fungicidal activity against foliar fungal diseases of plants, Erysiphe graminis (barley); format: in vivo; settings: 100 ppm foliar spray plus root drench ca. 40 ppm a.i./dry soil, inoculated 24 hours before treatment
Venturia inaequalis = test: fungicidal activity against foliar fungal diseases of plants, Venturia inaequalis (apple); format: in vivo; settings: 100 ppm foliar spray plus root drench ca. 40 ppm a.i./dry soil, 1-2 days before inoculation
Pyricularia oryzae = format: in vivo; settings: 100 ppm foliar spray plus root drench ca. 40 ppm a.i./dry soil, 1-2 days before inoculation
Cercospora arachidicola = test: fungicidal activity against foliar fungal diseases of plants, Cercospora arachidicola (peanut); format: in vivo; settings: 100 ppm foliar spray plus root drench ca. 40 ppm a.i./dry soil, 1-2 days before inoculation
Plasmorpara viticola = test: fungicidal activity against foliar fungal diseases of plants, Plasmorpara viticola (vine); format: in vivo; settings: 100 ppm foliar spray plus root drench ca. 40 ppm a.i./dry soil, 1-2 days before inoculation
Puccinia recondita = test: fungicidal activity against foliar fungal diseases of plants, Puccinia recondita (wheat); format: in vivo; settings: 100 ppm foliar spray plus root drench ca. 40 ppm a.i./dry soil, 1-2 days before inoculation
Phytophthora infestans = format: in vivo; settings: 100 ppm foliar spray plus root drench ca. 40 ppm a.i./dry soil, 1-2 days before inoculation
Tomato = test: plant growth regulating, whole plant screen, tomato; format: in vivo, Tomato (Ailsa Craig); settings: tomato (TO); 4000 ppm (4 kg/ha); after 2-6 weeks
Experimental: (§1) This Example illustrates the plant growth regulating properties of compounds 1 and 2 when tested on a whole plant screen against various species of plant. The plant species are identified in Table IV with the leaf stage at which they were sprayed.
(§2) A formulation of each chemical was applied at 4000 ppm (4 kg/ha in a 1000 l/ha field volume) using a tracksprayer and a SS8004E (Teejet) nozzle.
(§3) After spraying, the plants were grown in a glasshouse with 25° C. day/22° C. night temperatures. Supplementary lighting was supplied when necessary to provide an average photoperiod of 16 hours (14 hours minimum).
(§4) After 2-6 weeks in the glasshouse, depending on species and time of year, the plants were visually assessed for morphological characteristics against a control plant sprayed with a blank formulation.

Maize = test: plant growth regulating, whole plant screen, maize; format: in vivo, Maize (Earliking); settings: maize (MZ); 4000 ppm (4 kg/ha); after 2-6 weeks
Experimental: as §1, §2, §3, §4

Rice = test: plant growth regulating, whole plant screen, rice; format: in vivo, Rice (Ishikari); settings: rice (RC); 4000 ppm (4 kg/ha); after 2-6 weeks
Experimental: as §1, §2, §3, §4

Apple = test: plant growth regulating, whole plant screen, apple; format: in vivo, Apple (Red Delicious); settings: apple (AP); 4000 ppm (4 kg/ha); after 2-6 weeks
Experimental: as §1, §2, §3, §4

[1] = test system: Tetranychus urticae (spider mites - adults); test: insecticidal properties, contact test, Tetranychus urticae adults (TUa); format: in vivo; settings: 500 ppm, French bean leaf, 3 days
Description: (§5) "SYNPERONIC" is a Registered Trade Mark.

[2] = test system: Tetranychus urticae (spider mites - ova); test: insecticidal properties, contact test, Tetranychus urticae ova (TUe); format: in vivo; settings: 500 ppm, French bean leaf, 6 days
Description: as §5

Myzus persicae (aphids) = test: insecticidal properties, contact test, Myzus persicae (MP); format: in vivo; settings: 500 ppm, Chinese Cabbage leaf, 3 days
Description: as §5

[3] = test system: Nilaparvata lugens (brown plant hopper - nymphs); test: insecticidal properties, contact test, Nilaparvata lugens nymphs (NL); format: in vivo; settings: 500 ppm, rice plant, 3 days
Description: as §5

[4] = test system: Musca domestica (houseflies - adults); test: insecticidal properties, contact test, Musca domestica adults (MDa); format: in vivo; settings: 500 ppm, cotton wool/sugar, 1 day
Description: as §5

[5] = test system: Musca domestica (houseflies - adults); test: knockdown properties against Musca domestica (MDk); format: in vivo; settings: 2000 ppm sprayed directly; inverted cup; knockdown at 15 minutes, mortality at 48 hours; 2 days
Experimental: A sample of compound 1 was diluted with 2 mls acetone and made up of a 2000 ppm solution with 0.1% aqueous synperonic solution. The solution (1 ml) was then sprayed directly onto twenty mixed sex houseflies held in a drinking cup. Immediately after spraying the cups were inverted and left to dry. An assessment of knockdown was made when the cups were righted 15 minutes later. The flies were then provided with a 10% sucrose solution on a cotton wool pad, and held for 48 hours in a holding room conditioned at 25° C. and 65% relative humidity before a mortality assessment was made.

[6] = test system: Heliothis virescens (tobacco budworm - larvae); test: insecticidal properties, residual test, Heliothis virescens larvae (HV); format: in vivo; settings: 500 ppm, cotton leaf, 3 days
Description: as §5

[7] = test system: Diabrotica balteata (rootworm larvae); test: insecticidal properties, residual test, Diabrotica balteata (DB); format: in vivo; settings: 500 ppm, filter paper/maize seed, 3 days
Description: as §5

[8] = test system: Meloidogyne incognita (tomato root knot eelworm - larvae); test: nematode test, residual, Meloidogyne incognita larvae (MI); format: in vivo; settings: 250 ppm, semi in-vitro, 7 days
Description: as §5
MI Meloidogyne incognita

[9] = test system: Blattella germanica (cockroach nymphs); test: insecticidal properties, residual test, Blattella germanica nymphs (BG); format: in vivo; settings: 500 ppm, plastic pot, 3 days
Description: as §5

[10] = test system: Chilo partellus (maize and sorghum stem borers - larvae); test: insecticidal properties, residual test, Chilo partellus larvae (CPA); settings: 500 ppm, oilseed rape, 3 days
Experimental: The activity of the compound was determined using insect, mite and nematode pests. The compound was used in the form of a liquid preparation containing 500 parts per million (ppm) by weight of the compound except for the test on Meloidogyne incognita when a liquid preparation of 250 ppm by weight was used. The preparation was made by dissolving the compound in acetone and diluting the solution with water containing 0.1% by weight of a wetting agent sold under the trade name "SYNPERONIC" NX until the liquid preparation contained the required concentration of the product.
The test procedure adopted with regard to each pest was basically the same and comprised supporting a number of the pests on a medium which was usually a host plant or a foodstuff on which the pests feed, and treating either or both the pests and the medium with the preparation. The mortality of the pests was then assessed at periods usually varying from one to seven days after the treatment.
The results of the tests are given in Table VII as a grading of mortality designated as 9, 5 or 0 wherein 9 indicates 80-100% mortality, 5 indicates 50-79% mortality and 0 indicates less than 50% mortality.

Structure (SMILES) | disease control, ERYSIPHE GRAMINIS (BARLEY) (Erysiphe graminis) | disease control, VENTURIA INAEQUALIS (APPLE) (Venturia inaequalis) | disease control, P[…] (RICE) (Pyricularia oryzae) | disease control, CERCOSPORA ARACHIDICOLA (PEANUT) (Cercospora arachidicola) | disease control, PLASMORPARA VITICOLA (VINE) (Plasmorpara viticola) | disease control, PUCCINIA RECONDITA (WHEAT) (Puccinia recondita) | disease control, PH[…] (TOMATO) (Phytophthora infestans) | also measured
CCOc1ccc2ccn(/C(=C\OC)C(=O)OC)c2c1 [Compound 2, (Z)-methyl 3-methoxy-2-[6-ethoxyindol-1-yl]acrylate] | 4 | 4 | 4 | 4 | 4 | 4 | 4 | A = Apical damage (Tomato): 3 (61-100%); I = Interligular or internodal length reduction (Tomato): 3 (61-100%); P = Phytotoxicity (Tomato): 2 (11-30%); R = Retardation (Tomato): 3 (61-100%); T = Tillering or side shooting (Tomato): 1 (10-30%); A = Apical damage (Maize): 2 (31-60%); G = Greening effect (Maize): 1 (10-30%)
CO/C=C(/C(=O)OC)n1ccc2ccc(Br)cc21 [Compound 7] | 4 | 4 | – | 4 | 4 | 4 | 4 | –
CO/C=C(/C(=O)OC)n1ccc2ccc(-c3ccccc3)cc21 [Compound 3, (Z)-methyl 3-methoxy-2-[6-phenylindol-1-yl]acrylate] | 2 (6-25% of disease on untreated plants) | 4 | 4 | – | 4 | 4 | 4 | –
CO/C=C(/C(=O)OC)n1ccc2ccc(I)cc21 [Compound 8] | 4 | 4 | – | 4 | 4 | 4 | 4 | –
CO/C=C(/C(=O)OC)n1ccc2ccccc21 [Compound 1] | 1 (26-59% of disease on untreated plants) | 3 (trace--5% of disease on untreated plants) | 3 (trace--5% of disease on untreated plants) | 3 (trace--5% of disease on untreated plants) | 4 | 0 (60-100% of disease on untreated plants) | – | I = Interligular or internodal length reduction (Rice): 1 (10-30%); R = Retardation (Rice): 1 (10-30%); I = Interligular or internodal length reduction (Apple): 1 (10-30%); R = Retardation (Apple): 1 (10-30%); grading of mortality, TUa [1]: 9 (80-100% mortality); grading of mortality, TUe [2]: 0 (less than 50% mortality); grading of mortality, MP (Myzus persicae (aphids)): 0 (less than 50% mortality); grading of mortality, NL [3]: 0 (less than 50% mortality); grading of mortality, MDa [4]: 0 (less than 50% mortality); grading of mortality, MDk (knockdown) [5]: 0 (less than 50% mortality); grading of mortality, HV [6]: 0 (less than 50% mortality); grading of mortality, DB [7]: 0 (less than 50% mortality); grading of mortality, MI [8]: 0 (less than 50% mortality); grading of mortality, BG [9]: 0 (less than 50% mortality); grading of mortality, CPA [10]: 9 (80-100% mortality)
CO/C=C(/C(=O)OC)n1ccc2ccc(OC)cc21 [Compound 4] | 2 (6-25% of disease on untreated plants) | 4 | 4 | 3 (trace--5% of disease on untreated plants) | 4 | 1 (26-59% of disease on untreated plants) | 0 (60-100% of disease on untreated plants) | –
